Experimental data from PMC9820167, “Design and Synthesis of Conformationally Flexible Scaffold as Bitopic Ligands for Potent D3-Selective Antagonists” (International Journal of Molecular Sciences, 2022).
Read-outs that look alike come from different tables or passages of the source.

Experiments:
Serotonin 5-HT5A = biological target: T1, Serotonin 5-HT5A (Homo sapiens, UniProt P47898); assay: PDSP binding screen; settings: read-out: Ki (nM) or % inhibition at 10 µM: 5-HT5A
T1 construct: Psychoactive Drug Screening Program (PDSP)
T1 sequence (P47898 whole entry): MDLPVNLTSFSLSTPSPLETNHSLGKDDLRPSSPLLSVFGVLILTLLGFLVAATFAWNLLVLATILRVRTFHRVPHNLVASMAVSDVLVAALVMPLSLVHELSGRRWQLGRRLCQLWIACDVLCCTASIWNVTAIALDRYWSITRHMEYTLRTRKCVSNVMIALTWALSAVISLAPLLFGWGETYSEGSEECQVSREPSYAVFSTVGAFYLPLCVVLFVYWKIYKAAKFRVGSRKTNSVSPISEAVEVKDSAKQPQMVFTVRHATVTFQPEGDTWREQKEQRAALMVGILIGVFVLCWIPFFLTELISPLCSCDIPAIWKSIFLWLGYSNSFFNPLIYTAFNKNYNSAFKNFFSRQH
Excerpt: (§1) Based on the results in the dopamine receptor radioligand binding assays, nine flexible-based compounds were selected for further evaluation for off-target binding with other GPCRs through the Psychoactive Drug Screening Program (PDSP) (Supplemental Table S2). […] For example, many of the N-aryl piperazine-based analogs that our group developed in the past for either the D2 or D3 receptor had high affinity for the 5-HT1A receptor [55, 56, 57, 58]. […] This mitochondrial-based protein is typically used as a target for imaging neuroinflammation. The results of the PDSP-binding assays also confirmed the data obtained in our lab for the binding of this panel of nine compounds to D2 and D3 receptors (Supplemental Table S2).

Serotonin 5-HT1E = biological target: T2, Serotonin 5-HT1E (Homo sapiens, UniProt P28566); assay: PDSP binding screen; settings: read-out: Ki (nM) or % inhibition at 10 µM: 5-HT1E
T2 construct: Psychoactive Drug Screening Program (PDSP)
Excerpt: as §1

Opioid DOR = biological target: T3, Opioid DOR (Homo sapiens, UniProt P41143); assay: PDSP binding screen; settings: read-out: Ki (nM) or % inhibition at 10 µM: DOR
T3 construct: Psychoactive Drug Screening Program (PDSP)
T3 sequence (P41143 whole entry): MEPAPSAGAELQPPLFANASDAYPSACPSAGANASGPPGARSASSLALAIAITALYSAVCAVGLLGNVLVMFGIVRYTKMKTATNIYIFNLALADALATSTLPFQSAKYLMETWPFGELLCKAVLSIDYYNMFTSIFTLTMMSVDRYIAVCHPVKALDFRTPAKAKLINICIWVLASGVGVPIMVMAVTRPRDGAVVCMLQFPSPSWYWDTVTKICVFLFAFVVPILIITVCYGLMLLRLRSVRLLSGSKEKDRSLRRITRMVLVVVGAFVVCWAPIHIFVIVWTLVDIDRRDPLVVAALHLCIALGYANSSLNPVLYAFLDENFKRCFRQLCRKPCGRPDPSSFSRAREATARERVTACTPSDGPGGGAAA
Excerpt: as §1

[1] = biological target: T4, Serotonin transporter (SERT) (Homo sapiens, UniProt P31645); assay: PDSP binding screen; settings: for inhibition at 10 µM: read-out: Ki (nM) or % inhibition at 10 µM: Serotonin transporter (SERT); for Ki: PDSP, HCl salts
T4 construct: Psychoactive Drug Screening Program (PDSP)
T4 sequence (P31645 whole entry, species assumed): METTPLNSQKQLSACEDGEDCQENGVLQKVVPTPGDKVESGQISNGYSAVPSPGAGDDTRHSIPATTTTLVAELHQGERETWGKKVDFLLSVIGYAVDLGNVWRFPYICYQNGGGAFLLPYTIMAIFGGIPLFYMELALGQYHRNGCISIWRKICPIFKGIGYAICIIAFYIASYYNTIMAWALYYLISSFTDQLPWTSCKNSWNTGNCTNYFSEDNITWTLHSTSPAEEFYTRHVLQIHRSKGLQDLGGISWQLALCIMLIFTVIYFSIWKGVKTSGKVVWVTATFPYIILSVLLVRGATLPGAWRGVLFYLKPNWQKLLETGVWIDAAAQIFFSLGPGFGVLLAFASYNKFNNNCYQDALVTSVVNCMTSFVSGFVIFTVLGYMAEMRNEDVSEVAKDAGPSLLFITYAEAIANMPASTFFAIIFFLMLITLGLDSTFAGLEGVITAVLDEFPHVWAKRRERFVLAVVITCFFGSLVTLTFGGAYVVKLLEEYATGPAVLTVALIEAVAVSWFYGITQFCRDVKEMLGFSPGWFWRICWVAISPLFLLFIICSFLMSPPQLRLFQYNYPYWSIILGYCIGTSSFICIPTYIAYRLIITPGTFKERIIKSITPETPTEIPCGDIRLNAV
Excerpt: as §1

Dopamine D1 = Dopamine D1 (Homo sapiens, UniProt P21728); assay: PDSP binding screen; settings: for inhibition at 10 µM: read-out: Ki (nM) or % inhibition at 10 µM: D1
Chain of Dopamine D1 (P21728 whole entry): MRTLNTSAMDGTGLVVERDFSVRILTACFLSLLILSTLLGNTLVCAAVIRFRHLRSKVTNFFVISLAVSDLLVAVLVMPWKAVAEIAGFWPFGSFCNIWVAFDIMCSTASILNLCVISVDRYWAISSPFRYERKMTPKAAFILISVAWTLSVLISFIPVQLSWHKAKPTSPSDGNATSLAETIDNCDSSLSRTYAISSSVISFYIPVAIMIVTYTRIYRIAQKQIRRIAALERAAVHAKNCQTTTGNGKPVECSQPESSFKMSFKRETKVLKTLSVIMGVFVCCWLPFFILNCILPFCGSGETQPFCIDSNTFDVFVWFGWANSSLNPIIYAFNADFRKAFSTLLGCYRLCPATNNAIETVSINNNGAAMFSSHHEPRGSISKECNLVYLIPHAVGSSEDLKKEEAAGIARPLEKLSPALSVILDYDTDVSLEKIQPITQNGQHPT

Adrenergic beta3 = Adrenergic beta3 (Homo sapiens, UniProt P13945); assay: PDSP binding screen; settings: for inhibition at 10 µM: read-out: Ki (nM) or % inhibition at 10 µM: beta3
Chain of Adrenergic beta3 (P13945 whole entry): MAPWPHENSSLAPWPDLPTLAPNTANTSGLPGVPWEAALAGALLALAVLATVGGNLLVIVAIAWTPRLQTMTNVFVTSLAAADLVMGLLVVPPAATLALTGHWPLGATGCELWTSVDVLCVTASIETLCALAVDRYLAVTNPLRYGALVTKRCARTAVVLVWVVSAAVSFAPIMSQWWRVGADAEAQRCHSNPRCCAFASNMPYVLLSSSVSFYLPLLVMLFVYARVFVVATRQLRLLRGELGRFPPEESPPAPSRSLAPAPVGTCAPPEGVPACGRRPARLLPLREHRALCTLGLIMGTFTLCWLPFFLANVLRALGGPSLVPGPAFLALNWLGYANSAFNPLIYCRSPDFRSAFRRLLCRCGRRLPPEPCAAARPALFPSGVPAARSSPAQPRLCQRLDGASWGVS

Serotonin 5-HT1A = biological target: T5, Serotonin 5-HT1A (Homo sapiens, UniProt P08908); assay: PDSP binding screen
T5 sequence (P08908 1-422): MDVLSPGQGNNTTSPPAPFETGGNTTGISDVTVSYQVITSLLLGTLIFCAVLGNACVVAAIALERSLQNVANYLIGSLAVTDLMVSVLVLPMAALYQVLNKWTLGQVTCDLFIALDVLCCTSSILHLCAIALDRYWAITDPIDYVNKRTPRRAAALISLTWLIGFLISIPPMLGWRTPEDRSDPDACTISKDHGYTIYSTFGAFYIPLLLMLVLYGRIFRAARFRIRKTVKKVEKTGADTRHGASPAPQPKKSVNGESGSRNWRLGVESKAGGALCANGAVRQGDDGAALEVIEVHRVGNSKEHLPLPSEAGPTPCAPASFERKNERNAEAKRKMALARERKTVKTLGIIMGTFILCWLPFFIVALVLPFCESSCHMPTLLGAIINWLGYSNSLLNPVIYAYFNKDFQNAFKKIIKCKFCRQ

Muscarinic M4 = biological target: T6, Muscarinic M4 (Homo sapiens, UniProt P08173); assay: PDSP binding screen; settings: for inhibition at 10 µM: read-out: Ki (nM) or % inhibition at 10 µM: M4
T6 sequence (P08173 1-479): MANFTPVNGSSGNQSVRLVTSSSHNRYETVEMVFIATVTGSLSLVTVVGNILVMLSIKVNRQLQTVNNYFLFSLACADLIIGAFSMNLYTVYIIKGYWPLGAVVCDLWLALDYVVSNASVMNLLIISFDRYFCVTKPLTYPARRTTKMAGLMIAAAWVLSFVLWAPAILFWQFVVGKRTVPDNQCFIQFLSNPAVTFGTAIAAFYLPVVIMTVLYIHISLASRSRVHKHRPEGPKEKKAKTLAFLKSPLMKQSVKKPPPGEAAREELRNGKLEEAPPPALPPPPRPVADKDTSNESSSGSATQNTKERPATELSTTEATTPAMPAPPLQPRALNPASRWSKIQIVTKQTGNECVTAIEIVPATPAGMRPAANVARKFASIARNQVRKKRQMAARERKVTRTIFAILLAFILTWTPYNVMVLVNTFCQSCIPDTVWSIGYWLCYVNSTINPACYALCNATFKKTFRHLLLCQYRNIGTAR

Dopamine D2 = Dopamine D2 (Homo sapiens, UniProt P14416); assay: PDSP binding screen
Chain of Dopamine D2 (P14416 whole entry): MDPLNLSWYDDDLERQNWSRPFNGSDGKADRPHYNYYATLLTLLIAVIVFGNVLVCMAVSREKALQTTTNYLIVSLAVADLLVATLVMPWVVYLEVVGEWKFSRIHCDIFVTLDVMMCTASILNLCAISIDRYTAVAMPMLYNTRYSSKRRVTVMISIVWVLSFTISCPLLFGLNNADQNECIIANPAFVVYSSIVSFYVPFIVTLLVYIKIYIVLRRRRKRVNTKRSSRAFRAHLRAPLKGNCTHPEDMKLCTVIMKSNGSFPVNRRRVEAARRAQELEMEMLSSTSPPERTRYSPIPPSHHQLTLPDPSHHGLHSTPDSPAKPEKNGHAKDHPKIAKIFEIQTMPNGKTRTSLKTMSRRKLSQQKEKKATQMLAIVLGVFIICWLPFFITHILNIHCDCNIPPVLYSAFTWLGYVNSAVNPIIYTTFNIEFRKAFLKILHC

human D3 receptors = human D3 receptors (Homo sapiens, UniProt P35462); assay: Radioligand binding assay with [125I]IABN, D3 receptor; design: expressed in transfected cells; host or cells: HEK293; settings: for Ki: D3 receptors expressed in HEK cells, mean ± SEM, three experiments, HCl salts; for D2/D3: selectivity ratio of Ki D2 / Ki D3 (fold)
Chain of human D3 receptors (P35462 whole entry): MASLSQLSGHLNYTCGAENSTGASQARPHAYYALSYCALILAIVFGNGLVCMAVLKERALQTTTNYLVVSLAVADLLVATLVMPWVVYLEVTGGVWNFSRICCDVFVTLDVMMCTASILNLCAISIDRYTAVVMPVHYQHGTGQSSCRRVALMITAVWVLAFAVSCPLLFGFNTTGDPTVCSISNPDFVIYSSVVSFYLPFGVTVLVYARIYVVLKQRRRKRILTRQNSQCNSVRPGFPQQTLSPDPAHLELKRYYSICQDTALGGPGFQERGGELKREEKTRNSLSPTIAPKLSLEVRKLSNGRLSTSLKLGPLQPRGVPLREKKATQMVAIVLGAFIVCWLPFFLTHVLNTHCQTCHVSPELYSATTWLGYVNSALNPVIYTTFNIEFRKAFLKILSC
Method: Two different assays were used to evaluate the properties of the analogs described above. The receptor binding affinity was measured by radioligand binding assays using [^125I]IABN with D2 or D3 receptors highly expressed HEK293 cells. The functional activity of the analogs was determined using a β-arrestin recruitment assay. The assay was initially conducted in agonist binding mode to confirm that they function as antagonists at the D3 receptor. Once this efficacy was confirmed, the assay was conducted in antagonist mode to determine the ability of the antagonist to compete with dopamine at the D3 receptor. The results of the antagonist mode assay are reported as IC50 values.
Ki values for D2 and D3 receptors were measured using [^125I]IABN in human D2 and D3 receptors expressed in HEK cells, respectively. A filtration binding assay was used to characterize membrane-associated receptor binding properties. The details for the procedures were described in the literature.

[2] = biological target: Norepinephrine transporter (NET) (Homo sapiens, UniProt P23975); assay: PDSP binding screen
Chain of Norepinephrine transporter (NET) (P23975 whole entry): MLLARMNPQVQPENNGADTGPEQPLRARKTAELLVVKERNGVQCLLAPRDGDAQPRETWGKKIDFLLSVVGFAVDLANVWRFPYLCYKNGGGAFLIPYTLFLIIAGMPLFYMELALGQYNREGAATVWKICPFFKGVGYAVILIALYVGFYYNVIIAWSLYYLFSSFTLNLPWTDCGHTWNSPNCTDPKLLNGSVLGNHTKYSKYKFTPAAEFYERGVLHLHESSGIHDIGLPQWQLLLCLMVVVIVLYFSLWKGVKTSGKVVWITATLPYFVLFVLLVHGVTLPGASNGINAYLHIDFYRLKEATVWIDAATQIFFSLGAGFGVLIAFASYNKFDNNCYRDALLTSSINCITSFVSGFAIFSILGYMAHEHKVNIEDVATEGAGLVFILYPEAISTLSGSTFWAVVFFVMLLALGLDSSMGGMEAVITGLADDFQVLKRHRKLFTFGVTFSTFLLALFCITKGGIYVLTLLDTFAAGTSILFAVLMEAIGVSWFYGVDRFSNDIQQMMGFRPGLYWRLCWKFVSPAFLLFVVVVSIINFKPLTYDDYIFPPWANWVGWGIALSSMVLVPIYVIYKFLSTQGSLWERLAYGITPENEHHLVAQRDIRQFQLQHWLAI

Muscarinic M3 = Muscarinic M3 (Homo sapiens, UniProt P20309); assay: PDSP binding screen; settings: for inhibition at 10 µM: read-out: Ki (nM) or % inhibition at 10 µM: M3
Chain of Muscarinic M3 (P20309 whole entry): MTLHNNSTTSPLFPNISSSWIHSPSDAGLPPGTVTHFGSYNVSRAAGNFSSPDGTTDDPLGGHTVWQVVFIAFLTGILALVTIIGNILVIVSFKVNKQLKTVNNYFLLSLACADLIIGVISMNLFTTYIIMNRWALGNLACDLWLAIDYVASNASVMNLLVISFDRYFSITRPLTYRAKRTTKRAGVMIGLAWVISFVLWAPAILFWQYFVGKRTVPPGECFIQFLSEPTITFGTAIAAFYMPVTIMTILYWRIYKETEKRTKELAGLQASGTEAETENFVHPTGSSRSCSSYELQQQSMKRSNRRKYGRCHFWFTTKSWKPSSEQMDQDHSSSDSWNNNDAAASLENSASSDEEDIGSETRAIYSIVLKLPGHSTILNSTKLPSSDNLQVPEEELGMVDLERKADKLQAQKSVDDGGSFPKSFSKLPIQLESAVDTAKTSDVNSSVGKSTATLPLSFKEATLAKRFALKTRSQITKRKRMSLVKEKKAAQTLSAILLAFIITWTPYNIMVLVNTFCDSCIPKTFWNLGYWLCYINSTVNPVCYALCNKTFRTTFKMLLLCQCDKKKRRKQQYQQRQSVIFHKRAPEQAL

Histamine H2 = Histamine H2 (Homo sapiens, UniProt P25021); assay: PDSP binding screen; settings: for inhibition at 10 µM: read-out: Ki (nM) or % inhibition at 10 µM: H2
Chain of Histamine H2 (P25021 whole entry): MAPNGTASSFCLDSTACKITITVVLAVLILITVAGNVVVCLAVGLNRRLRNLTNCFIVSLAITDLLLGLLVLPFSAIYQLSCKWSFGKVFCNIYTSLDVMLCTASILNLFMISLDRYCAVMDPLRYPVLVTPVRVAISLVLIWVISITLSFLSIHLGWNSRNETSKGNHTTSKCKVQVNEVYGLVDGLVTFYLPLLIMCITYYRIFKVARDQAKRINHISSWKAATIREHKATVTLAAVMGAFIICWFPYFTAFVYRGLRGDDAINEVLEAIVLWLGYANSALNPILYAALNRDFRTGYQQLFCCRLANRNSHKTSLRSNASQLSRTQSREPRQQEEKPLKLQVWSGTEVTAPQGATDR

GABAA = assay: PDSP binding screen; settings: HCl salts
[3] = [125I]IABN, read-out: Ki ± SEM (nM) D3

Compound | inhibition at 10 µM (Serotonin 5-HT5A; PDSP, HCl salts) | inhibition at 10 µM (Serotonin 5-HT1E; PDSP, HCl salts) | inhibition at 10 µM (Opioid DOR) | inhibition at 10 µM [1] | inhibition at 10 µM (Dopamine D1) | Ki (Serotonin 5-HT1A) | inhibition at 10 µM (Muscarinic M4) | Ki (Dopamine D2) | Ki (human D3 receptors; [3]) | D2/D3 (human D3 receptors) | Ki [2] | inhibition at 10 µM (Muscarinic M3) | inhibition at 10 µM (Histamine H2) | Ki (nM) or % inhibition at 10 µM: GABAA (GABAA) | Ki (Adrenergic beta3) | Ki (Muscarinic M4) | Ki (Histamine H2) | other results
CCN(CCCNC(=O)c1cc2ccccc2[nH]1)CCNC(=O)c1cc(Br)cc(OC)c1OC [21d, N-(3-((2-(5-Bromo-2,3-dimethoxybenzamido)ethyl)(ethyl)amino)propyl)-1H-indole-2-carboxamide] | < 50% | < 50% | < 50% | < 50% | < 50% | 692 nM | < 50% | 89 nM | 0.8 ± 0.2 nM | 180.5 | 842 nM | < 50% | < 50% | N/A (N/A; not active means less than 50% inhibition that was obtained in primary binding assay at 10 µM of the compound) | – | – | – | inhibition at 10 µM (Adrenergic beta3): < 50%
CCN(CCCNC(=O)c1ccc(-c2ccsc2)cc1)CCNC(=O)c1cc(Br)cc(OC)c1OC [21g, 5-Bromo-N-(2-(ethyl(3-(4-(thiophen-3-yl)benzamido)propyl)amino)ethyl)-2,3-dimethoxybenzamide] | < 50% | < 50% | < 50% | < 50% | – | 3310 nM | – | 170 nM | 2.5 ± 0.3 nM | 125 | 1940 nM | < 50% | – | N/A (N/A; not active means less than 50% inhibition that was obtained in primary binding assay at 10 µM of the compound) | 2960 nM | 1090 nM | 2480 nM | Ki (Dopamine D1): 2010 nM
CCN(CCCNC(=O)c1ccsc1)CCNC(=O)c1cc(Br)cc(OC)c1OC [21i, N-(3-((2-(5-Bromo-2,3-dimethoxybenzamido)ethyl)(ethyl)amino)propyl)thiophen-e-3-carboxamide] | < 50% | < 50% | – | < 50% | < 50% | 245 nM | < 50% | 40 nM | 7 ± 0.5 nM | 43.4 | 3200 nM | < 50% | < 50% | N/A (N/A; not active means less than 50% inhibition that was obtained in primary binding assay at 10 µM of the compound) | > 10000 nM | – | – | inhibition at 10 µM (Opioid DOR; PDSP, HCl salts): < 50%
CCN(CCCNC(=O)c1ccc2ccccc2c1)CCNC(=O)c1cc(Br)cc(OC)c1OC [21a, N-(3-((2-(5-Bromo-2,3-dimethoxybenzamido)ethyl)(ethyl)amino)propyl)-2-naphthamide] | < 50% | < 50% | < 50% | – | < 50% | 971 nM | < 50% | 216 nM | 1.2 ± 0.2 nM | 141 | 391 nM | – | – | N/A (N/A; not active means less than 50% inhibition that was obtained in primary binding assay at 10 µM of the compound) | 4530 nM | – | 2790 nM | Ki [1]: 3010 nM; Ki (Muscarinic M3): 1260 nM
CCN(CCCNC(=O)c1cc2ccccc2n1C)CCNC(=O)c1cc(Br)cc(OC)c1OC [21j, N-(3-((2-(5-Bromo-2,3-dimethoxybenzamido)ethyl)(ethyl)amino)propyl)-1-methyl-1H-indole-2-carboxamide] | – | < 50% | < 50% | – | < 50% | 961 nM | < 50% | 76 nM | 3.1 ± 0.5 nM | 61.9 | 1100 nM | < 50% | – | N/A (N/A; not active means less than 50% inhibition that was obtained in primary binding assay at 10 µM of the compound) | 4360 nM | – | 3680 nM | inhibition at 10 µM (Serotonin 5-HT5A): < 50%; Ki [1]: 415 nM
CCN(CCCNC(=O)c1ccc(-c2ccncc2)cc1)CCNC(=O)c1cc(Br)cc(OC)c1OC [21c, 5-Bromo-N-(2-(ethyl(3-(4-(pyridin-4-yl)benzamido)propyl)amino)ethyl)-2,3-dimethoxybenzamide] | < 50% | < 50% | – | < 50% | < 50% | 509 nM | – | 74 nM | 1.1 ± 0.1 nM | 97.3 | – | < 50% | < 50% | N/A (N/A; not active means less than 50% inhibition that was obtained in primary binding assay at 10 µM of the compound) | – | 930 nM | – | inhibition at 10 µM (Opioid DOR; PDSP, HCl salts): < 50%; inhibition at 10 µM (Adrenergic beta3): < 50%; inhibition at 10 µM ([2]; read-out: Ki (nM) or % inhibition at 10 µM: Norepinephrine transporter (NET)): < 50%
CCN(CCCNC(=O)c1ccc(-c2cccs2)cc1)CCNC(=O)c1cc(Br)cc(OC)c1OC [9a, 5-Bromo-N-(2-(ethyl(3-(4-(thiophen-2-yl)benzamido)propyl)amino)ethyl)-2,3-dimethoxybenzamide] | – | – | < 50% | < 50% | – | 1740 nM | – | 232 nM | – | 169 | 772 nM | – | – | N/A (N/A; not active means less than 50% inhibition that was obtained in primary binding assay at 10 µM of the compound) | 1500 nM | 1600 nM | 2610 nM | inhibition at 10 µM (Serotonin 5-HT5A): < 50%; inhibition at 10 µM (Serotonin 5-HT1E): < 50%; Ki (Dopamine D1): 2400 nM; Ki (human D3 receptors; Ki ± SEM (nM) D3, [125I]IABN): 1 ± 0.01 nM; Ki (Muscarinic M3): 4750 nM
